23 molecules from US20260199325A1, “NOVEL SUBSTITUTED PYRAZINE-CARBOXAMIDE-IMIDAZOPYRIDINE DERIVATIVES” (Boehringer Ingelheim International GmbH, priority 2022, published 2026) can be followed below.

SMILES strings stand for the structures.

For this assay, the target named is T1, human metabotropic Glutamate 4 receptor (Homo sapiens, UniProt Q14833).
T1 construct: expressed in transfected cells; host or cells: HEK293
T1 sequence (Q14833 33-912): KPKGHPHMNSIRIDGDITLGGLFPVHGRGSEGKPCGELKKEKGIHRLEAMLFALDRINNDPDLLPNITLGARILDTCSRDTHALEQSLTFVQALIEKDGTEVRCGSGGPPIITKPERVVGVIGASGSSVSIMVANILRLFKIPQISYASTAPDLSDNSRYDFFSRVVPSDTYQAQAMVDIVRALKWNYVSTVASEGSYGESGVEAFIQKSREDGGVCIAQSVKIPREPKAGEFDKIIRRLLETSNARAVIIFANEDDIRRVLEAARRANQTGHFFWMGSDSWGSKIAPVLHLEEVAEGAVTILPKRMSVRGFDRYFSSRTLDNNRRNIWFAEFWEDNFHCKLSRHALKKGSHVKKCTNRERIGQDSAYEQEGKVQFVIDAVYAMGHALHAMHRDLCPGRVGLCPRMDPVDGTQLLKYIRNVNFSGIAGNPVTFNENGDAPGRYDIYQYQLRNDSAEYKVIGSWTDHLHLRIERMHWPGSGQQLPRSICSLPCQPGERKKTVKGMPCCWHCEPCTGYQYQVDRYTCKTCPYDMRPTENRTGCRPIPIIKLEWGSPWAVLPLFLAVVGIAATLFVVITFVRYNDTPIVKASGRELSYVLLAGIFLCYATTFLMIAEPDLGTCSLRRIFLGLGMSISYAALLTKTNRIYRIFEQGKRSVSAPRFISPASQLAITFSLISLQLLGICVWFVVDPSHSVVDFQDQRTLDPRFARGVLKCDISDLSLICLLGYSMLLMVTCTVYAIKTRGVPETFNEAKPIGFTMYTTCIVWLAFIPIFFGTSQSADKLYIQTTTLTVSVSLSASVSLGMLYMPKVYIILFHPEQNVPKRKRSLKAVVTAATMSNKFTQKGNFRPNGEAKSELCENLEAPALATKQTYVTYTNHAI
Put plainly: In vitro testing of mGluR4 potency (Assay A), cAMP HTRF in HEK293 cells. The assay is classed as cell-based. Particulars: Table 2; HEK293 cell overexpressing human mGluR4; 10 uM L-Glutamic acid, 1 uM forskolin. On the procedure: A. In Vitro Testing of mGluR4 Potency
The in vitro activity of the compounds according to the invention may be investigated as follows:
The HEK293 cell overexpressing the human metabotropic Glutamate 4 receptor were thawed at 37° C. and immediately diluted with cell culture medium. After centrifugation, the cell pellet is re-suspended in medium and then distributed from a stirred spinner flask into the wells of the assay plate. The plates are incubated for one hour at room temperature before they are incubated for 24 hours at 37° C./5% C02. After washing the cells in the plate three times with 80 uL HBSS/HEPES buffer (10 uL buffer remained in the wells after washing), 5 uL per well of compounds diluted in HBSS/HEPES buffer containing 0.2% BSA (final concentration: 0.1%) and 1 mM IBMX (final concentration: 0.5 mM) are added to the wells of the assay plate. Thereafter 5 uL per well of L-Glutamic acid (final concentration: 10 uM), forskolin (final concentration: 1 uM) and 1 mM IBMX (final concentration: 0.5 mM) dissolved in HBSS/HEPES buffer containing 0.2% BSA (final concentration: 0.1%) are added to the assay plate (final DMSO concentration: 1%). Several wells of the assay plate are used either for the positive and the negative controls or for the cAMP standard curve. The assay plate is incubated for 30 minutes at room temperature. Then 5 ul per well of Anti-cAMP-Antibody-d2 solution and 5 ul per well of cAMP-Europium Cryptate dilution are added to all wells of the plate and the plate is incubated another 60 minutes light protected at room temperature. The emission at 615 nm and 665 nm (Excitation wavelength: 320 nm) are measured on the EnVision™ reader (PerkinElmer). The ratio between the emission at 665 nm and 615 is calculated by the reader. The whole assay is performed in the dark or under green light.
The cAMP standard is prepared by diluting the cAMP stock solution with HBSS/Hepes buffer: 5 μl/well of the cAMP dilutions (in HBSS/Hepes buffer containing 1 mM IBMX and 0.2% BSA-final concentration: 0.5 mM IBMX and 0.1% BSA) are added to 10 ul/well HBSS/Hepes buffer plus 5 ul/well 4% DMSO in HBSS/Hepes containing 0.2% BSA (final DMSO concentration: 1%-like in the wells containing compounds) in the wells of the assay plate. The final cAMP concentrations in the assay plate were: 0, 0.17, 0.69, 2.78, 11.1, 44.5, 178, and 712 nM (two wells/cAMP concentration).
Each assay microtiter plate contained also wells with vehicle controls instead of compound as controls for L-Glutamic acid induced signal (negative control; 100% CTL; 10 uM L-Glutamic acid+1 uM forskolin+0.5 mM IBMX+1% DMSO) and wells with vehicle controls without L-Glutamic acid as controls for non-specific changes in signal (positive control; 0% CTL; 0 uM L-Glutamic acid+1 uM forskolin+0.5 mM IBMX+1% DMSO).
The analysis of the data is performed by the calculation the ratio between the emission at 665 nm and the emission at 615 nm (Em665/Em615 ratio). Thereafter the signals of the compounds are normalized using the positive and negative controls by the following formula:
PoC=100×((Signal Sample−Positive Control)/(Negative Control−Positive Control))
What is called IC50 is the concentration needed to halve the response being measured. Lower therefore signals higher potency. Consider `COC(C)(C)[C@H](NC(=O)c1cnc(C(F)F)cn1)c1nc2c(C)c(C#N)cnc2n1C(C)C` [Example 1, N-[(1R)-1-[6-cyano-7-methyl-3-(propan-2-yl)-3H-imidazo[4,5-b]pyridin-2-yl]-2-methoxy-2-methylpropyl]-5-(difluoromethyl)pyrazine-2-carboxamide], for which the IC50 was 1 nM.

In turn, `COC(C)(C)[C@H](NC(=O)c1cnc(C)cn1)c1nc2c(C)c(C#N)cnc2n1C(C)C` [Example 2, N-[(IR)-1-[6-cyano-7-methyl-3-(propan-2-yl)-3H-imidazo[4,5-b]pyridin-2-yl]-2-methoxy-2-methylpropyl]-5-methylpyrazine-2-carboxamide] showed an IC50 of 2 nM. Regarding `Cc1cnc(C(=O)N[C@H](c2nc3cc(C(F)(F)F)cnc3n2C(C)C)C2CC2)cn1` [Example 3, N-[(S)-cyclopropyl[3-(propan-2-y1)-6-(trifluoromethyl)-3H-imidazo[4,5-b]pyridin-2-y1]methyl]-5-methylpyrazine-2-carboxamide], the IC50 came to 2 nM.

The molecule `Cc1c(C#N)cnc2c1nc([C@@H](NC(=O)c1cnc(C(F)F)cn1)C1CC1)n2C(C)C` [Example 4, N-[(S)-[6-cyano-7-methyl-3-(propan-2-yl)-3H-imidazo[4,5-b]pyridin-2-yl](cyclopropyl)methyl]-5-(difluoromethyl)pyrazine-2-carboxamide] registered an IC50 of 2 nM. In the case of `COc1c(Br)cnc2c1nc([C@@H](NC(=O)c1cnc(C)cn1)C1CC1)n2C(C)C` [Example 5, N-[(S)-[6-bromo-7-methoxy-3-(propan-2-yl)-3H-imidazo[4,5-b]pyridin-2-yl](cyclopropyl)methyl]-5-methylpyrazine-2-carboxamide], the IC50 turned out to be 2 nM. Take `Cc1cnc(C(=O)N[C@@H](CC2CC2)c2nc3cc(C(F)(F)F)cnc3n2C(C)C)cn1` [Example 6, N-[(1S)-2-cyclopropyl-1-[3-(propan-2-yl)-6-(trifluoromethyl)-3H-imidazo[4,5-b]pyridin-2-yl]ethyl]-5-methylpyrazine-2-carboxamide]: the IC50 turned out to be 2 nM. As for `Cc1c(C#N)cnc2c1nc([C@@H](NC(=O)c1cnc(C(F)F)cn1)C1CCC1)n2C(C)C` [Example 7, N-[(S)-[6-cyano-7-methyl-3-(propan-2-yl)-3H-imidazo[4,5-b]pyridin-2-yl](cyclobutyl)methyl]-5-(difluoromethyl)pyrazine-2-carboxamide], the figure is 3 nM; as for `Cc1cnc(C(=O)N[C@H](c2nc3ccc(C(F)(F)F)nc3n2C(C)C)C2CC2)cn1` [Example 8, N-[(S)-cyclopropyl[3-(propan-2-yl)-5-(trifluoromethyl)-3H-imidazo[4,5-b]pyridin-2-yl]methyl]-5-methylpyrazine-2-carboxamide], 3 nM; as for `COC(C)(C)[C@H](NC(=O)c1cnc(C)cn1)c1nc2cc(Cl)cnc2n1C(C)C` [Example 9, N-[(1R)-1-[6-chloro-3-(propan-2-yl)-3H-imidazo[4,5-b]pyridin-2-yl]-2-methoxy-2-methylpropyl]-5-methylpyrazine-2-carboxamide], 3 nM. As to `Cc1cnc(C(=O)N[C@H](c2nc3cc(Cl)cnc3n2C(C)C)C2CC2)cn1` [Example 10, N-[(S)-[6-chloro-3-(propan-2-yl)-3H-imidazo[4,5-b]pyridin-2-yl](cyclopropyl)methyl]-5-methylpyrazine-2-carboxamide], the IC50 is 4 nM. The IC50 values of the last two molecules are within 1.5-fold of each other. `Cc1c(C#N)cnc2c1nc([C@H](CC1CC1)NC(=O)c1cnc(C(F)F)cn1)n2C(C)C` [Example 11, N-[(1S)-1-[6-cyano-7-methyl-3-(propan-2-yl)-3H-imidazo[4,5-b]pyridin-2-yl]-2-cyclopropylethyl]-5-(difluoromethyl)pyrazine-2-carboxamide] gave an IC50 of 4 nM.

In turn, `CO[C@H](C)[C@H](NC(=O)c1cnc(C)cn1)c1nc2cc(C(F)(F)F)cnc2n1C(C)C` [Example 12, N-[(1R,2R)-2-methoxy-1-[3-(propan-2-yl)-6-(trifluoromethyl)-3H-imidazo[4,5-b]pyridin-2-yl]propyl]-5-methylpyrazine-2-carboxamide] yielded an IC50 of 4 nM. As for `CO[C@H](C)[C@H](NC(=O)c1cnc(C)cn1)c1nc2cc(Cl)cnc2n1C(C)C` [Example 13, N-[(1R,2R)-1-[6-chloro-3-(propan-2-yl)-3H-imidazo[4,5-b]pyridin-2-yl]-2-methoxypropyl]-5-methylpyrazine-2-carboxamide], the figure is 4 nM; as for `Cc1cnc(C(=O)N[C@@H](CC2CC2)c2nc3c(C)c(C#N)cnc3n2C(C)C)cn1` [Example 14, N-[(1S)-1-[6-cyano-7-methyl-3-(propan-2-yl)-3H-imidazo[4,5-b]pyridin-2-yl]-2-cyclopropylethyl]-5-methylpyrazine-2-carboxamide], 5 nM. `Cc1cnc(C(=O)N[C@H](c2nc3c(C)c(C#N)cnc3n2C(C)C)C2CCC2)cn1` [Example 15, N-[(S)-[6-cyano-7-methyl-3-(propan-2-yl)-3H-imidazo[4,5-b]pyridin-2-yl](cyclobutyl)methyl]-5-methylpyrazine-2-carboxamide] registered an IC50 of 6 nM. `Cc1cnc(C(=O)N[C@H](c2nc3c(C)nc(C(F)(F)F)cc3n2C(C)C)C2CC2)cn1` [Example 16, N-[(S)-cyclopropyl[4-methyl-1-(propan-2-yl)-6-(trifluoromethyl)-1H-imidazo[4,5-c]pyridin-2-yl]methyl]-5-methylpyrazine-2-carboxamide] showed an IC50 of 13 nM. Compared with the last molecule, the IC50 is about 2.2-fold higher. The molecule `Cc1c(C#N)cnc2c1nc([C@@H](NC(=O)c1cnc(C(F)F)cn1)[C@H]1CCCO1)n2C(C)C` [Example 17, N-[(R)-[6-cyano-7-methyl-3-(propan-2-yl)-3H-imidazo[4,5-b]pyridin-2-yl][(2R)-oxolan-2-yl]methyl]-5-(difluoromethyl)pyrazine-2-carboxamide] came in with an IC50 of 7 nM.

In turn, `Cc1cnc(C(=O)N[C@@H](C[C@H]2CCCO2)c2nc3c(C)c(C#N)cnc3n2C(C)C)cn1` [Example 18, N-[(1S)-1-[6-cyano-7-methyl-3-(propan-2-yl)-3H-imidazo[4,5-b]pyridin-2-yl]-2-[(2R)-oxolan-2-yl]ethyl]-5-methylpyrazine-2-carboxamide] gave an IC50 of 7 nM. In the case of `CO[C@H](C)[C@H](NC(=O)c1cnc(C(F)F)cn1)c1nc2c(C)c(C#N)cnc2n1C(C)C` [Example 19, N-[(1R,2R)-1-[6-cyano-7-methyl-3-(propan-2-yl)-3H-imidazo[4,5-b]pyridin-2-yl]-2-methoxypropyl]-5-(difluoromethyl)pyrazine-2-carboxamide], the midpoint of inhibition, the IC50, lay at 8 nM. In turn, `Cc1c(C#N)cnc2c1nc([C@@H](NC(=O)c1cnc(C(F)F)cn1)[C@@H](C)OC(F)F)n2C(C)C` [Example 20, N-[(1R,2R)-1-[6-cyano-7-methyl-3-(propan-2-yl)-3H-imidazo[4,5-b]pyridin-2-yl]-2-(difluoromethoxy)propyl]-5-(difluoromethyl)pyrazine-2-carboxamide] registered a half-maximal inhibitory concentration (IC50) of 8 nM. Molecule `Cc1cnc(C(=O)N[C@H](c2nc3c(C)c(C#N)cnc3n2C(C)C)[C@@H](C)OC(F)F)cn1` [Example 21, N-[(1R,2R)-1-[6-cyano-7-methyl-3-(propan-2-yl)-3H-imidazo[4,5-b]pyridin-2-yl]-2-(difluoromethoxy)propyl]-5-methylpyrazine-2-carboxamide] yielded an IC50 of 9 nM. `Cc1nc(C(F)(F)F)cc2c1nc([C@@H](NC(=O)c1cnc(C(F)F)cn1)C1CC1)n2C(C)C` [Example 22, N-[(S)-cyclopropyl[4-methyl-1-(propan-2-yl)-6-(trifluoromethyl)-1H-imidazo[4,5-c]pyridin-2-yl]methyl]-5-(difluoromethyl)pyrazine-2-carboxamide] displayed an IC50 of 10 nM. This IC50 and that of the molecule before are within 1.5-fold of each other. With `CO[C@@H](C)[C@H](NC(=O)c1cnc(C)cn1)c1nc2cc(Cl)cnc2n1C(C)C` [Example 23, N-[(1R,2S)-1-[6-chloro-3-(propan-2-yl)-3H-imidazo[4,5-b]pyridin-2-yl]-2-methoxypropyl]-5-methylpyrazine-2-carboxamide], the IC50 amounted to 10 nM. That is a double-digit nanomolar value.
